How the values were obtained:
TNFα = conditions: lipopolysaccharide challenge; cited from earlier work
sE-Selectin = test: Phase II clinical study CEP-1347-201: sE-Selectin change from baseline; format: in vivo, human; conditions: for sE Selection Change from Baseline at Week 8, LS Mean: ANCOVA
From the text: Results from an ANCOVA (analysis of covariance) including treatment group as a factor and the baseline value as a covariate are presented in Table 24.

mice = conditions: cited from earlier work
[1] = test system: subjects with Parkinson disease; test: Rhinitis episodes in subjects with Parkinson disease on CEP-1347; format: in vivo, human
From the text: In a study examining for association of the MAP3K9 gene and Allergic Rhinitis, deCODE found an association of certain MAP3K9 haplotypes (Table 7A) with Allergic Rhinits, with RR of approximately 1.4 for each allele carried (p<0.05). The risk was highest in a subgroup of subjects with Allergic Rhinitis alone (RR of 1.6 and p=0.005). Additional support that the MAP3K9 gene may play a role in Allergic Rhinits comes from a study conducted on subjects with Parkinson disease. […] Indeed, none of the subjects in the 50 mg dose group (n=198) developed rhinitis whereas 6 subjects in the placebo group (n=191) developed rhinitis (p=0.01).

IL-1β = conditions: standard in vitro pharmacological testing procedures (WO 97/49406); cited from earlier work
asthma patients = test: Phase II clinical study CEP-1347-201: methacholine challenge test (MCT; PC20 ANCOVA, survival analysis, model based EC50 analysis, AUC analysis); format: in vivo, human; conditions: for Percent of subjects with an increase in the AUC for the methacholine dose-response curve (AUCPost > AUCPre): after 8 weeks, placebo 33%; for median event-causing (20% drop in FEV1) methacholine concentration, PC20 survival analysis at week 8: placebo 3.0, log-rank p=0.02; for % Shift in EC50 (methacholine): model based analysis, vs placebo EC50; for Patients with Censored PC20 / Patients with PC20: week 8; for PC20 Change from Baseline at Week 8, LS Mean: ANCOVA, actual + imputed PC20
Procedure: A methacholine challenge test (MCT) was conducted at baseline and at the end of the 8-week treatment period in a subset of patients. The MCT test was not undertaken if, in the opinion of the investigator, MCT administration was contraindicated based on the patient's condition or the patient declined to participate. Patients that underwent a MCT were exposed to escalating doses of methacholine (methacholine administration typically leads to an acute decrease in lung function) and changes in lung function were measured by FEV1. The dose of methacholine was escalated until FEV1 decreased by 20% or the maximum MCT dose was reached. The dose of methacholine that produced a 20% decrease in FEV1 (PC20) was recorded. The change in FEV1 associated with each administration/dose of methacholine was recorded
The methacholine challenge test was conducted in a subset of patients at baseline and at the end of the 8-week treatment period.
In these cases the highest methacholine dose the patient received was assumed to be the PC20.
A 20% drop in FEV1 (PC20) was considered to be an event observation and the methacholine dose was treated as the “survival time” variable in the survival analysis. […] A Kaplan-Meier's product-limit estimate of the survival curve was generated; treatment effects were compared using a standard log-rank test; and baseline MCT information was ignored.
To make use of all methacholine-FEVI data a post hoc, model based analysis (i.e., nonlinear mixed effects model) was undertaken. The goal of the model based analysis was to estimate the magnitude of CEP-1347 effect on the patient's sensitivity to methacholine.
• the approach is more complex and less widely accepted compared to ANCOVA or survival analysis approaches • assumptions regarding the model structure are necessary • the suppressive effect of methacholine on lung functions was assumed to follow a classic inhibitory EMAX model, • the attenuating effect of CEP-1347 was assumed to shift an individual's EC50 or sensitivity to methacholine.
The model based analysis utilized 2202 FEV1 measurements following methacholine dosing. MCT data were available from 123 patients corresponding to approximately 17.9 observations per patient.
FEV1=E0*(1−EMAX*MET^γ/(EC50^γ+MET^γ))+ε(1) (Eq. 1)
Where, E0 was the FEV1 associated with a methacholine dose of 0, MET was the methacholine dose, EMAX was the maximum fractional suppression of FEV1 by methacholine, EC50 was the methacholine concentration at which 50% of maximal suppression was achieved, γ was the Hill coefficient, and ε (1) was the residual error term.
Inter-subject random effects were included on EMAX and EC50. […] Subsequently, the effect of CEP-1347 on the methacholine dose-response was added to the model. […] In other words, this model based approach asks the questions “Does CEP-1347 cause a patient to be less sensitive to methacholine (i.e., increase the individual patient's methacholine EC50)”. For the purposes of this model based analysis equation 2 describes the implementation of the CEP-1347 effect on the attenuation of the methacholine dose-response relationship:
Model selection was done on the basis of the log likelihood criterion (p<0.05) and visual inspection of goodness-of-fit plots. The difference in −2 times the log of the likelihood (−2LL) between a full and reduced model is asymptotically χ^2 distributed with degrees of freedom equal to the difference in number of parameters between the two models.

In the case of CCSCc1ccc2c(c1)c1c3c(c4c5cc(CSCC)ccc5n5c4c1n2C1CC(O)(C(=O)OC)C5(C)O1)CNC3=O (centres unmarked) [CEP-1347], the “production of TNFα by mice after LPS challenge” value (TNFα) is listed as “reduces production”, the “sE Selection Change from Baseline at Week 8, LS Mean” value (shortened to “sE Selection Change from Baseline”) (sE-Selectin; 10 mg BID, p 0.12) is listed as −1.49 and the “sE Selection Change from Baseline” value (sE-Selectin; 25 mg BID, p 0.005) is listed as −3.18. For the same compound, the “sE Selection Change from Baseline” value (sE-Selectin; 50 mg BID, p 0.26) was −1.00, the sE-Selection levels (sE-Selectin; CEP-1347 treated groups compared to placebo, p=0.02) was “significantly lower” and the “protection from LPS-induced death” value (mice) was “provides protection”. For the same compound, the “subjects who developed rhinitis” value ([1]; 50 mg dose group (n=198), 6 subjects in placebo group (n=191), p=0.01) was “none”, the “AR episodes (rhinitis episodes)” value ([1]; 50 mg twice daily (bid), N=198, placebo 6 (N=191), p = 0.01) was 0 and the “production of IL-1β by cultured cells” value (IL-1β) was “inhibit the production”. For the same compound, the “Percent of subjects with an increase in the AUC for the methacholine dose-response curve (AUCPost > AUCPre)” value (“Percent of subjects with an increase” for short) (asthma patients; 10 mg BID, Cochran-Mantel-Haenzel p = 0.075, logistic regression p = 0.039) was 55%, the “median event-causing (20% drop in FEV1) methacholine concentration, PC20 survival analysis at week 8” value (asthma patients; 10 mg BID, 95% confidence interval (0.85,+∞)) was 3.7 µg/mL and the “% Shift in EC50 (methacholine)” value (asthma patients; 10 mg BID) was −40%. The “Patients with Censored PC20” value (asthma patients; 10 mg BID) was 11 (39%) n (% of treatment group), the “Patients with PC20” value (asthma patients; 10 mg BID) was 17 (61%) n (% of treatment group) and the “Percent of subjects with an increase” value (asthma patients; 25 mg BID) was 58%. The “median event-causing (20% drop in FEV1) methacholine concentration, PC20 survival analysis at week 8” value (asthma patients; 25 mg BID, 95% confidence interval (1.87,+∞)) was 6.8 µg/mL, the “% Shift in EC50 (methacholine)” value (asthma patients; 25 mg BID) was 21% and the “Patients with Censored PC20” value (asthma patients; 25 mg BID) was 8 (47%) n (% of treatment group). For the same compound, the “Patients with PC20” value (asthma patients; 25 mg BID) was 9 (53%) n (% of treatment group), the “PC20 change from baseline at week 8 (ANCOVA)” value (asthma patients; 50 mg BID group) was “seemingly worsened” and the “Percent of subjects with an increase” value (asthma patients; 50 mg BID) was 59%. The “median event-causing (20% drop in FEV1) methacholine concentration, PC20 survival analysis at week 8” value (asthma patients; 50 mg BID, 95% confidence interval (0.6, 3.0)) was 0.85 µg/mL, the “% Shift in EC50 (methacholine)” value (asthma patients; 50 mg BID) was 43% and the “increase of the methacholine EC50 (shift of methacholine-FEV1 dose-response curve to the right), model based analysis” value (asthma patients; 50 mg BID, nonlinear mixed effects model, effect size estimates imprecise) was 43%. For the same compound, the “Patients with Censored PC20” value (asthma patients; 50 mg BID) was 3 (14%) n (% of treatment group), the “Patients with PC20” value (asthma patients; 50 mg BID) was 18 (86%) n (% of treatment group) and the “PC20 Change from Baseline at Week 8, LS Mean” value (shortened to “PC20 Change … LS Mean”) (asthma patients; CEP-1347 10 mg BID, p .66) was 1.00. The “PC20 Change … LS Mean” value (asthma patients; CEP-1347 25 mg BID, p .77) was 1.84, the “PC20 Change … LS Mean” value (asthma patients; CEP-1347 50 mg BID, p .02) was −1.18 and the “Summary of MCT analyses: ANCOVA, Results and Comments” value (asthma patients; PC20 at baseline and week 8) was “Not significant”. For the same compound, the “PC20 change from baseline at week 8 (ANCOVA)” value (asthma patients; all CEP-1347 groups vs placebo, PC20 imputed as highest methacholine dose where no 20% FEV1 decline) was “No clinical or statistically significant improvement” and the “effect on methacholine effects on FEV1, model based analysis” value (asthma patients; all doses, full vs reduced model p=0.02) was “dose related attenuation”.

Source: patent US20080146540A1, “Methods of diagnosis and treatment for asthma, allergic rhinitis and other respiratory diseases based on haplotype association” (priority 2003, published 2008)
